Data set [1] relates to HTT mRNA. Description: Blood HTT mRNA in infants with Type 1 SMA (droplet digital PCR). It counts as in vivo, human. On the procedure: The effect of branaplam on the expression levels of Huntingtin (HTT) mRNA was assessed in infants with Type I spinal muscular atrophy who were enrolled in an open-label multi-part first-in-human proof of concept study of oral branaplam.
Patients were dosed once weekly with branaplam. The branaplam doses were escalated in subsequent cohorts until MTD was determined or when PK results confirmed that the MTD could not be reached due to a potential pharmacokinetic exposure plateau at higher doses. […]
Levels of HTT mRNA and novel-exon-included HTT mRNA were then quantified by polymerase chain reaction (PCR) using the Bio-Rad QX200 droplet digital PCR system. […]
For HTT mRNA levels, two independent predesigned quantitative PCR assays (Assay Hs.PT.58.14833829 with forward primer 5′-[…]-3′ (SEQ ID NO: 10), reverse primer 5′-[…]-3′ (SEQ ID NO: 11) and probe 5′-56-FAM/CGCTTCCAC/ZEN/TTGTCTTCATTCTCCTTGT/3IABKFQ-3′ (SEQ ID NO: 12) and assay Hs.PT.58.25550542 with forward primer 5′-[…]-3′ (SEQ ID NO: 13), reverse primer 5′-CACCACTCTGGCTTCACAA-3′ (SEQ ID NO: 14) and probe 5′-56-FAM/CCCGACAGC/ZEN/GAGTCAGTGATTGTT/3IABKFQ-3′ (SEQ ID NO: 15), purchased from Integrated DNA Technologies, Inc.) were used. […]

Data set [2] can be described thus: Mouse population PK model (plasma). The class given is in vivo. The note with it: popPK parameters (plasma). The protocol: For the establishment of the PK/PD relationship and the development of a mouse PK/PD model, the PK parameters in mouse plasma were estimated considering PK data from studies with male C57BL/6 mice (10 mg/kg, single dose), rasH2 mice (1, 3, 4 and 10 mg/kg, repeated daily doses), and BacHD mice (10 and 50 mg/kg, single dose; 12 and 24 mg/kg, repeated, three times a week doses). […] The population PK model was described and executed by Monolix software (Version 2018R1, Lixoft).

A word on the CL/F: it is the apparent clearance, not corrected for the fraction that reaches the circulation. For `CC1(C)CC(Oc2ccc(-c3ccc(-c4cn[nH]c4)cc3O)nn2)CC(C)(C)N1` [Compound 18, 5-(1H-pyrazol-4-yl)-2-(6-((2,2,6,6-tetramethylpiperidin-4-yl)oxy)pyridazin-3-yl)phenol], the “inclusion of the novel exon into blood HTT mRNA” value in data set [1] (infants with Type 1 SMA, once weekly oral, up to 1450 study days, listed as branaplam) is “induced and elevated”. Also, the “blood HTT mRNA levels between study days 904 and 1450” value in data set [1] (only 1-5 long-term treated subjects) is recorded as “returned to values around baseline levels”. The CL/F in data set [2] (C57BL/6, rasH2, BacHD (pooled), other: extra-vascular administration) was 55.8 mL/min/kg. In data set [2], the Q/F was 8.4 mL/min/kg, the V1 is recorded as 28.2 L/kg, the V2 was 32.5 L/kg and the ka is 0.429 h⁻¹. Besides, the Tlag in data set [2] (pooled C57BL/6, rasH2 and BacHD data) was determined as 0.346 h.

The values above are taken from patent US20240216369A1, “THE USE OF A SPLICING MODULATOR FOR A TREATMENT SLOWING PROGRESSION OF HUNTINGTON'S DISEASE” (Novartis AG, priority 2019, published 2024).
